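Grown in 96-well plates, cells were treated for 48 hours with each compound at five concentrations. Insufficient inhibition: endpoint recorded as highest concentration tested. The concentration for 50% growth inhibition is given as GI50.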 The source made the active and inactive calls. Cut-off read from the data, not from the text of the source: active = GI50 up to about 1.1 µM and inactive = higher.
Key:
Test in all cases: DTP human tumour cell line panel, 48 h
SK-MEL-5 = test system: SK-MEL-5
COLO 205 = test system: COLO 205
HCT-15 = test system: HCT-15
NCI-H23 = test system: NCI-H23
SK-MEL-28 = test system: SK-MEL-28
SN12C = test system: SN12C
OVCAR-3 = test system: OVCAR-3
A498 = test system: A498
NCI/ADR-RES = test system: NCI/ADR-RES
SF-268 = test system: SF-268
MDA-MB-435 = test system: MDA-MB-435
U-251 = test system: U-251
M14 = test system: M14
HCT-116 = test system: HCT-116
OVCAR-8 = test system: OVCAR-8
MOLT-4 = test system: MOLT-4
MCF7 = test system: MCF7
SNB-75 = test system: SNB-75
MDA-N = test system: MDA-N
SK-OV-3 = test system: SK-OV-3

Structure (SMILES) | GI50 (SK-MEL-5) | GI50 (COLO 205) | GI50 (HCT-15) [µM] | GI50 (NCI-H23) | GI50 (SK-MEL-28) | GI50 (SN12C) | GI50 (OVCAR-3) | GI50 (A498) | GI50 (NCI/ADR-RES) | GI50 (SF-268) | GI50 (MDA-MB-435) | GI50 (U-251) | GI50 (M14) | GI50 (HCT-116) | GI50 (OVCAR-8) | GI50 (MOLT-4) | GI50 (MCF7) | GI50 (SNB-75) | GI50 (MDA-N) | GI50 (SK-OV-3)
O=C(NC1C(=O)NC(CCc2ccccc2)NC1=O)OCc1ccccc1 (centres undefined) | > 100 µM (inactive) | > 100 µM (inactive) | > 100 | > 100 µM (inactive) | > 100 µM (inactive) | > 100 µM (inactive) | > 100 µM (inactive) | > 100 µM (inactive) | > 100 µM (inactive) | > 100 µM (inactive) | > 100 µM (inactive) | > 100 µM (inactive) | > 100 µM (inactive) | > 100 µM (inactive) | > 100 µM (inactive) | > 100 µM (inactive) | > 100 µM (inactive) | > 100 µM (inactive) |  | 
CCCCC[C@H]1CCCCCCCCCC(=O)OC2C(O[C@@H]3OC(C)[C@H](OC(=O)[C@@H](C)CC)C(O[C@@H]4OC(C)[C@H](O)C(O)[C@@H]4O)[C@@H]3OC(=O)[C@H](C)CC)[C@H](OC3C(O)[C@@H](O)C(C)O[C@H]3O1)OC(CO)[C@H]2O (some centres undefined) | 17.1 µM (inactive) | 11.9 µM (inactive) | 16.7 | 17.9 µM (inactive) | 16.1 µM (inactive) | 17.5 µM (inactive) | 17.9 µM (inactive) |  | 18.8 µM (inactive) | 16.3 µM (inactive) |  | 17.9 µM (inactive) | 18.2 µM (inactive) | 16.1 µM (inactive) | 19.3 µM (inactive) | 15.6 µM (inactive) | 17.3 µM (inactive) |  | 17.4 µM (inactive) | 15.6 µM (inactive)
N#C/C(=C\c1cc(F)cc(F)c1)c1ccccn1 | 13.3 µM (inactive) | > 10 µM (inactive) | 15.4 | 26.1 µM (inactive) | 47 µM (inactive) | 24 µM (inactive) | 36.1 µM (inactive) |  | 23.6 µM (inactive) | 19.4 µM (inactive) |  | 16.8 µM (inactive) | 25.8 µM (inactive) | 27.9 µM (inactive) | 16 µM (inactive) | 13.7 µM (inactive) | 26.9 µM (inactive) | 16.1 µM (inactive) | 19.7 µM (inactive) | 61.8 µM (inactive)
COCC1OC(OC2C3=C(C(C)C)CCC3(C)/C=C3\C(CCC3(O)COC)C(C)C2O)C(O)C2OC3OC12OC3(C)C1CO1 (centres undefined) | 18 µM (inactive) | 41.5 µM (inactive) | 25.1 | 90.2 µM (inactive) | 31.6 µM (inactive) | 50.9 µM (inactive) | 26.4 µM (inactive) | 44 µM (inactive) |  | 16.9 µM (inactive) | 31 µM (inactive) | 24 µM (inactive) | 43.2 µM (inactive) | 34 µM (inactive) | 48 µM (inactive) | 27.6 µM (inactive) | 45.5 µM (inactive) | 21.7 µM (inactive) | 54.1 µM (inactive) | 51.8 µM (inactive)
CC(=O)/C=C/C1=C(C)CCCC1(C)CC(C)C (centres undefined) | 16.9 µM (inactive) | 30.3 µM (inactive) | 15.1 | 24.8 µM (inactive) | 40.8 µM (inactive) | 18.8 µM (inactive) | 26.5 µM (inactive) | 24.2 µM (inactive) |  | 39.7 µM (inactive) | 32.5 µM (inactive) | 26.7 µM (inactive) | 31.6 µM (inactive) | 25.5 µM (inactive) | 31.3 µM (inactive) | 17.7 µM (inactive) | 25.2 µM (inactive) | 21.6 µM (inactive) | 28.9 µM (inactive) | 55.5 µM (inactive)
Cn1c2c(c3ccccc31)CCN(CCCCN1CCN(c3ccccc3)CC1)C2=O | 5.69 µM (inactive) | 8.51 µM (inactive) | 17.2 | 35.6 µM (inactive) | 15.8 µM (inactive) | > 65.6 µM (inactive) | 57.3 µM (inactive) | 45 µM (inactive) |  | 56 µM (inactive) | 17.5 µM (inactive) | 34.8 µM (inactive) | 4.58 µM (inactive) | 12.9 µM (inactive) | 47.6 µM (inactive) | 7.38 µM (inactive) | 19.2 µM (inactive) | 44.8 µM (inactive) | 21.6 µM (inactive) | > 100 µM (inactive)
CN1CCN(c2ccc3c(c2)NCC(=O)N3)CC1 | > 100 µM (inactive) | > 100 µM (inactive) | > 100 | > 100 µM (inactive) | > 100 µM (inactive) |  | > 100 µM (inactive) | > 100 µM (inactive) | > 100 µM (inactive) | > 100 µM (inactive) | > 100 µM (inactive) | > 100 µM (inactive) | > 100 µM (inactive) | > 100 µM (inactive) | > 100 µM (inactive) | > 100 µM (inactive) |  | > 100 µM (inactive) |  | > 100 µM (inactive)
CCOC(=O)Cn1nnc2cc(Nc3c(C)[n+]([O-])c4cc(F)c(OCC)cc4[n+]3[O-])ccc21 | > 100 µM (inactive) |  | > 100 | > 100 µM (inactive) | > 100 µM (inactive) |  | > 100 µM (inactive) | > 100 µM (inactive) | > 100 µM (inactive) | 45.8 µM (inactive) | > 100 µM (inactive) | 32.5 µM (inactive) | > 100 µM (inactive) | > 100 µM (inactive) | > 100 µM (inactive) | 0.273 µM (active) | > 100 µM (inactive) |  |  | 38.6 µM (inactive)
CCOC(=O)/C=C/c1nc(C#N)c(N)o1 | > 100 µM (inactive) |  | > 100 |  | > 100 µM (inactive) | > 100 µM (inactive) |  | > 100 µM (inactive) |  | > 100 µM (inactive) | > 100 µM (inactive) | > 100 µM (inactive) | > 100 µM (inactive) | > 100 µM (inactive) | > 100 µM (inactive) | > 100 µM (inactive) | > 100 µM (inactive) | > 100 µM (inactive) | > 100 µM (inactive) | > 100 µM (inactive)
Cn1c(CO)ccc1-c1ccc(-c2ccc(CO)[se]2)[se]1 | 2.28 µM (inactive) | 1.77 µM (inactive) | 9.82 | 16.3 µM (inactive) | 17 µM (inactive) | 10.6 µM (inactive) | 2.01 µM (inactive) | 0.023 µM (active) | 33.9 µM (inactive) | > 78.5 µM (inactive) | 3.08 µM (inactive) | 0.528 µM (active) | 10.4 µM (inactive) | 0.859 µM (active) | 6.89 µM (inactive) | 3.76 µM (inactive) | 0.251 µM (active) | > 100 µM (inactive) |  | > 50.4 µM (inactive)
C=C1C(=O)O[C@H]2C/C(C=O)=C\[C@H]3O[C@H]3/C(COC(=O)C(C)C)=C/CC12 (some centres undefined) | 9.42 µM (inactive) | 1.93 µM (inactive) | 3.3 | 4.97 µM (inactive) | 3.3 µM (inactive) | 2.54 µM (inactive) | 6.49 µM (inactive) |  | 6.34 µM (inactive) |  | 4.25 µM (inactive) | 7.26 µM (inactive) |  | 3.05 µM (inactive) | 3.14 µM (inactive) | 3.06 µM (inactive) | 5.21 µM (inactive) |  | 2.91 µM (inactive) | 
C=C1C(=O)O[C@@H]2OC3(C)CCC4C(C)CCC1C42OO3 (some centres undefined) | 4.88 µM (inactive) | 3.46 µM (inactive) | 1.87 | 5.6 µM (inactive) | 11.5 µM (inactive) | 3.82 µM (inactive) | 3.41 µM (inactive) | 3.33 µM (inactive) | 2.42 µM (inactive) | 2.94 µM (inactive) |  | 4.85 µM (inactive) |  | 1.53 µM (inactive) | 3.09 µM (inactive) | 1.52 µM (inactive) | 3.39 µM (inactive) | 3.59 µM (inactive) |  | 20.3 µM (inactive)
COc1ccc(C2COc3c(ccc(O)c3C)C2)cc1OC (centres undefined) | 11.7 µM (inactive) | 61.7 µM (inactive) | 57.8 | 67.8 µM (inactive) | 121 µM (inactive) | 104 µM (inactive) | 70.1 µM (inactive) | 11.2 µM (inactive) | 110 µM (inactive) | 106 µM (inactive) |  | 64.6 µM (inactive) |  | 48.3 µM (inactive) | 113 µM (inactive) | 29.2 µM (inactive) | 81.7 µM (inactive) | 38.1 µM (inactive) |  | > 187 µM (inactive)
Cc1c(-c2ccccc2)[nH]c2cc(Cl)ccc2c1=O | 35.1 µM (inactive) |  | 17.2 | 36.3 µM (inactive) | 71.9 µM (inactive) | > 100 µM (inactive) | 56.9 µM (inactive) | > 100 µM (inactive) |  | 33.5 µM (inactive) | 12 µM (inactive) | 25.8 µM (inactive) | 76.2 µM (inactive) | 23.8 µM (inactive) |  | > 100 µM (inactive) | 37 µM (inactive) |  | 10.2 µM (inactive) | 39.4 µM (inactive)
Cn1c2ccc(C3=NCCN3)cc2c2cc(C3=NCCN3)ccc21 | 31.3 µM (inactive) | 0.724 µM (active) | > 100 | 4.16 µM (inactive) | 24 µM (inactive) | 6.31 µM (inactive) | 42 µM (inactive) | > 100 µM (inactive) | > 100 µM (inactive) | 0.0463 µM (active) | 61.8 µM (inactive) | 14.9 µM (inactive) | 48.6 µM (inactive) | 21.9 µM (inactive) | 28.9 µM (inactive) | 0.637 µM (active) |  | 78.5 µM (inactive) | 53.1 µM (inactive) | 44.1 µM (inactive)
CN(C)CCNC(=O)c1cccc2ccc(-c3ccc(Br)cc3)nc12 | 1.46 µM (inactive) | 0.944 µM (active) | 2.78 | 3.47 µM (inactive) | 3.76 µM (inactive) | 2.33 µM (inactive) | 3.27 µM (inactive) | 1.99 µM (inactive) | 1.8 µM (inactive) | 3.92 µM (inactive) |  | 2.8 µM (inactive) |  | 1.23 µM (inactive) | 1.55 µM (inactive) | 0.333 µM (active) | 2.92 µM (inactive) | 3.27 µM (inactive) |  | 2.82 µM (inactive)
